According to patent US12522596B2, “Compounds as GLP-1R agonists” (Terns Pharmaceuticals, Inc., priority 2021, dated 2026):
Like-named read-outs stand apart in the source and are kept apart here.

Assay: Pharmacokinetics in hGLP-1R mice after oral dosing
Type: in vivo, male C57BL/6J hGLP-1R mouse
Conditions: male, C57BL/6J hGLP-1R, mouse, plasma, po; for AUC0-inf: read-out: AUC0-inf; for MRT inf: read-out: MRT0-inf; for MRT last: read-out: MRT0-last; for concentration at 120 min: hGLP-1R mouse plasma collected at 120 min (IPGTT cohort)
Description: IPGTT (120 min)—PK bleeding: 40 μL blood samples (all treatment groups) were collected from mice under the jaw at IPGTT-120 min after blood glucose measurement into pre-chilled EDTA-2K tubes. Blood samples were processed for plasma by centrifugation at 4° C., 3200×g for 10 min. 15 μL plasma was stored at −80° C. for PK analysis. From 4 mice in Group 7 of the PD cohort, whole brain was collected after blood is harvested at 120 min post dose, rinsed with saline and patted dry and placed into a pre-weighed tube and stored at −80° C. collected for PK analysis.
PK bleeding group design is described in Table 9.
PK bleeding: 30 μL blood was collected at 0.25, 0.5, 1, 2, 4, and 8 h. Blood samples were processed for plasma by centrifugation at 4° C., 3200×g for 10 min. 12 μL plasma was collected at −80° C. for further analysis. From 3 mice in Group 7 of the PK cohort, whole brain was collected after blood is harvested at 8 hr post dose, rinsed with saline and patted dry and placed into a pre-weighed tube and stored at −80° C. collected for PK analysis.
For plasma: An aliquot of 3 μL sample was protein precipitated with 60 μL internal standard (100 ng/mL Labetalol & 100 ng/ml Dexamethasone & 100 ng/ml Tolbutamide & 100 ng/mL Verapamil & 100 ng/ml Glyburide & 100 ng/ml Celecoxib in ACN) and then the mixture was vortex-mixed for 10 min at 800 rpm and centrifuged for 15 min at 3220×g, 4° C.
The linear/log trapezoidal rule was applied in obtaining the PK parameters. Individual plasma concentration values that were below the lower limit of quantitation (LOQ) were excluded from the PK parameter calculation. The nominal dose levels and nominal sampling times were used in the calculation of all pharmacokinetic parameters.

[1] = 0.3 mg/kg, hGLP-1R mouse plasma, PO 0.3 mg/kg, read-out: Mean Concentration
[2] = 0.3 mg/kg, hGLP-1R mouse plasma, PO 0.3 mg/kg, individual animals, read-out: Concentration
[3] = 0.3 mg/kg, hGLP-1R mouse plasma, PO 0.3 mg/kg, mean
[4] = 1 mg/kg, hGLP-1R mouse plasma, PO 1 mg/kg, individual animals, read-out: Concentration
[5] = 1 mg/kg, hGLP-1R mouse plasma, PO 1 mg/kg, read-out: Mean Concentration
[6] = 1 mg/kg, hGLP-1R mouse plasma, PO 1 mg/kg, individual mice
[7] = 1 mg/kg, hGLP-1R mouse plasma, PO 1 mg/kg, mean
[8] = 3 mg/kg, hGLP-1R mouse plasma, PO 3 mg/kg, read-out: Mean Concentration
[9] = 3 mg/kg, hGLP-1R mouse plasma, PO 3 mg/kg, mean

For N#Cc1ccc(COc2cccc(C3CCN(Cc4nc5ccc(C(=O)O)cc5n4Cc4cncs4)CC3)n2)c(F)c1 [Compound 2], the concentration at 0.5 h [1] was 80.6 ng/mL, the concentration at 1 h [2] was 43.3 ng/mL and the concentration at 1 h [1] was 49.4 ng/mL. For the same compound, the concentration at 2 h (0.3 mg/kg, hGLP-1R mouse plasma, PO 0.3 mg/kg) was 10.6 ng/mL, the concentration at 4 h [1] was 3.74 ng/mL and the concentration at 8 h [2] was 2.34 ng/mL. It also gave a concentration at 8 h [1] of 1.99 ng/mL, an AUC0-inf (0.3 mg/kg, hGLP-1R mouse plasma, PO 0.3 mg/kg, individual mice) of 124 ng·h/mL and an AUC(0-t) (0.3 mg/kg, hGLP-1R mouse plasma, PO 0.3 mg/kg, individual mice, read-out: AUC0-last) of 117 ng·h/mL. For the same compound, the Cmax (0.3 mg/kg, hGLP-1R mouse plasma, PO 0.3 mg/kg, individual mice, read-out: Cmax) was 63.4 ng/mL, the Tmax (0.3 mg/kg, hGLP-1R mouse plasma, PO 0.3 mg/kg, individual mice, read-out: Tmax) was 0.5 h and the AUC0-inf [3] was 111 ng·h/mL. The AUC(0-t) (0.3 mg/kg, hGLP-1R mouse plasma, PO 0.3 mg/kg, mean, read-out: AUC0-last) was 107 ng·h/mL, the Cmax (0.3 mg/kg, hGLP-1R mouse plasma, PO 0.3 mg/kg, mean, read-out: Cmax) was 82.7 ng/mL and the MRT inf [3] was 1.7 h. The MRT last [3] was 1.4 h, the half-life (0.3 mg/kg, hGLP-1R mouse plasma, PO 0.3 mg/kg, mean, read-out: T1/2 (converted)) was 1.4 h and the Tmax (0.3 mg/kg, hGLP-1R mouse plasma, PO 0.3 mg/kg, mean, read-out: Tmax) was 0.417 h. For the same compound, the AUC(0-t) (1 mg/kg, hGLP-1R mice, total, PO 1.0 mg/kg, read-out: AUClast Mean) was 390 ng·h/mL, the Cmax (1 mg/kg, hGLP-1R mice, total, PO 1.0 mg/kg, read-out: Cmax Mean) was 283 ng/mL and the half-life (1 mg/kg, hGLP-1R mice, total, PO 1.0 mg/kg, read-out: T1/2 (converted)) was 1.42 h. The Tmax (1 mg/kg, hGLP-1R mice, total, PO 1.0 mg/kg, read-out: Tmax Median) was 0.5 h, the concentration at 120 min (1 mg/kg, PO 1 mg/kg, read-out: Mean Concentration) was 69.8 ng/mL and the concentration at 0.25 h [4] was 320 ng/mL. The concentration at 0.25 h [5] was 251 ng/mL, the concentration at 0.5 h [4] was 329 ng/mL and the concentration at 0.5 h [5] was 283 ng/mL. It also gave a concentration at 1 h [4] of 252 ng/mL, a concentration at 1 h [5] of 197 ng/mL and a concentration at 2 h (1 mg/kg, hGLP-1R mouse plasma, PO 1 mg/kg) of 48.6 ng/mL. For the same compound, the concentration at 4 h [4] was 7.58 ng/mL, the concentration at 4 h [5] was 7.51 ng/mL and the concentration at 8 h [5] was 4.73 ng/mL. For the same compound, the AUC0-inf [6] was 507 ng·h/mL, the AUC(0-t) (1 mg/kg, hGLP-1R mouse plasma, PO 1 mg/kg, individual mice, read-out: AUC0-last) was 498 ng·h/mL and the Cmax (1 mg/kg, hGLP-1R mouse plasma, PO 1 mg/kg, individual mice, read-out: Cmax) was 329 ng/mL. The MRT inf [6] was 1.47 h, the MRT last [6] was 1.32 h and the half-life (1 mg/kg, hGLP-1R mouse plasma, PO 1 mg/kg, individual mice, read-out: T1/2 (converted)) was 1.28 h. It also gave a Tmax (1 mg/kg, hGLP-1R mouse plasma, PO 1 mg/kg, individual mice, read-out: Tmax) of 0.5 h, an AUC0-inf [7] of 400 ng·h/mL and an AUC(0-t) (1 mg/kg, hGLP-1R mouse plasma, PO 1 mg/kg, mean, read-out: AUC0-last) of 390 ng·h/mL. The Cmax (1 mg/kg, hGLP-1R mouse plasma, PO 1 mg/kg, mean, read-out: Cmax) was 283 ng/mL, the MRT inf [7] was 1.57 h and the MRT last [7] was 1.35 h. The half-life (1 mg/kg, hGLP-1R mouse plasma, PO 1 mg/kg, mean, read-out: T1/2 (converted)) was 1.42 h, the Tmax (1 mg/kg, hGLP-1R mouse plasma, PO 1 mg/kg, mean, read-out: Tmax) was 0.5 h and the Tmax (3 mg/kg, hGLP-1R mice, oral, across the doses tested (0.3, 1 and, for Compound 2, 3 mg/kg), read-out: median Tmax) was 0.5 h. It also gave an AUC(0-t) (3 mg/kg, hGLP-1R mice, total, PO 3.0 mg/kg, read-out: AUClast Mean) of 2440 ng·h/mL, a Cmax (3 mg/kg, hGLP-1R mice, total, PO 3.0 mg/kg, read-out: Cmax Mean) of 1820 ng/mL and a half-life (3 mg/kg, hGLP-1R mice, total, PO 3.0 mg/kg, read-out: T1/2 (converted)) of 2.03 h. The Tmax (3 mg/kg, hGLP-1R mice, total, PO 3.0 mg/kg, read-out: Tmax Median) was 0.5 h, the concentration at 120 min (3 mg/kg, PO 3 mg/kg, read-out: Mean Concentration) was 277 ng/mL and the concentration at 0.25 h [8] was 1570 ng/mL. The concentration at 0.5 h [8] was 1790 ng/mL, the concentration at 1 h [8] was 990 ng/mL and the concentration at 2 h (3 mg/kg, hGLP-1R mouse plasma, PO 3 mg/kg) was 304 ng/mL. The concentration at 4 h [8] was 84.4 ng/mL, the concentration at 8 h (3 mg/kg, hGLP-1R mouse plasma, PO 3 mg/kg, individual animals, read-out: Concentration) was 92.1 ng/mL and the concentration at 8 h [8] was 47.5 ng/mL. The MRT last (3 mg/kg, hGLP-1R mouse plasma, PO 3 mg/kg, individual mice) was 2.04 h, the Tmax (3 mg/kg, hGLP-1R mouse plasma, PO 3 mg/kg, individual mice, read-out: Tmax) was 0.5 h and the AUC0-inf [9] was 2620 ng·h/mL. It also gave an AUC(0-t) (3 mg/kg, hGLP-1R mouse plasma, PO 3 mg/kg, mean, read-out: AUC0-last) of 2440 ng·h/mL, a Cmax (3 mg/kg, hGLP-1R mouse plasma, PO 3 mg/kg, mean, read-out: Cmax) of 1820 ng/mL and an MRT inf [9] of 2.64 h. It also gave an MRT last [9] of 1.66 h, a half-life (3 mg/kg, hGLP-1R mouse plasma, PO 3 mg/kg, mean, read-out: T1/2 (converted)) of 2.03 h and a Tmax (3 mg/kg, hGLP-1R mouse plasma, PO 3 mg/kg, mean, read-out: Tmax) of 0.417 h. For the same compound, the half-life (hGLP-1R male mice, oral, across doses, read-out: terminal T1/2) was under 2 h.
